Assay results taken from US6958345B2, “2-hydroxymethylcyclopropylidene methylpurines and -pyrimidines as antiviral agents” (The Regents of the University of Michigan, priority 1997, dated 2005).

What was measured:
[1] = test system: CEM cells; assay: Cytotoxicity in growing CEM cells, microscopic inspection; format: cell-based
Method: (§1) Cells and viruses. The routine growth and passage of KB cells was performed in monolayer cultures using minimal essential medium (MEM) with either Hanks salts [MEM(H)] or Earle salts [MEM(E)] supplemented with 10% calf serum. The sodium bicarbonate concentration was varied to meet the buffering capacity required. Cultures of diploid human foreskin fibroblasts (HFF) or MRC-5 cells were grown in medium consisting of MEM(E) with 10% fetal bovine serum. Cells were passaged at 1:2 to 1:10 dilutions according to conventional procedures by using 0.05% trypsin plus 0.02% EDTA in a HEPES buffered salt solution (HBS) (Shipman, C., Jr., Proc. Soc. Exp. Biol. 130:305-310 (1969)) as described previously. Turk, S. R., et al., Antimicrob. Agents Chemother. 31:544-550 (1987). HFF and MRC-5 cells were passaged only at 1:2 dilutions. CEM cells were maintained in suspension culture as detailed previously. Kucera, L. S., et al., AIDS Res. Human Retroviruses 9:307-314 (1993).
(§2) Cytotoxicity assays. Two different assays were used to explore cytotoxicity of selected compounds as we have detailed previously. (i) Cytotoxicity produced in stationary HFF cells and in growing CEM cells was determined by microscopic inspection of cells used in plaque and RT assays which were not affected by the virus. Turk, S. R., et al., Antimicrob. Agents Chemother. 31:544-550 (1987). (ii) The effect of compounds during two population doublings of KB cells was determined by crystal violet staining and spectrophotometric quantitation of dye eluted from stained cells. Prichard, M. N., et al., Antimicrob. Agents Chemother. 35:1060-1065 (1991).
(§3) Data Analysis. Dose-response relationships were constructed by linearly regressing the percent inhibition of parameters derived in the preceding sections against log drug concentrations. Fifty-percent inhibitory (IC50) concentrations were calculated from the regression lines. Samples containing positive controls (acyclovir for HSV-1, ganciclovir for HCMV, and 2-acetylpyridine thiosemicarbazone for cytotoxicity) were used in all assays.

[2] = test system: KB cells; assay: Cytotoxicity in KB cells, growth over two population doublings; format: cell-based
Method: as §1, §2, §3

[3] = test system: HCMV; assay: HCMV plaque reduction assay in HFF cells; format: cell-based, Human CMV (HCMV); conditions: Example 26; for IC50: HFF cells, plaque reduction; for activity against HCMV (in words): racemic analogues
Method: as §1
(§4) Virological procedures. Stock HCMV was prepared by infecting HFF cells at a multiplicity of infection (m.o.i.) of <0.01 plaque-forming units (p.f.u.) per cell. Cell growth medium was changed every four days until cytopathology was evident in all cells (approximately 21 days). Supernatant fluids were retained as the virus stock. High titer HSV-1 stocks were prepared by infecting KB cells at an m.o.i. of <0.1 as detailed previously. Turk, S. R., et al., Antimicrob. Agents Chemother. 31:544-550 (1987). Virus titers were determined using monolayer cultures of HFF cells for HCMV and monolayer cultures of BSC-1 cells for HSV-1 as described earlier. Prichard, M. N., et al., J. Virol. Methods 28:101-106 (1990). Briefly, HFF or BSC-1 cells were planted as described above in 96-well cluster dishes and incubated overnight at 37° C. in a humidified 3% CO297% air atmosphere. The next day cultures were inoculated with HCMV or HSV-1 and serially diluted 1:3 across the remaining eleven columns of the 96-well plate. Cultures were incubated at 37° C. for 2 hr to permit virus adsorption and then virus inoculum was replaced with 0.2 mL of fresh medium. Cultures were incubated for seven days for HCMV, two or three days for HSV-1, medium was removed, and the cell sheets were stained with 0.1% crystal violet in 20% methanol. Plaques were enumerated under 20-fold magnification in wells having the dilution which gave 5 to 20 plaques per well. Virus titers were calculated according to the following Formula: Titer (p.f.u./mL)=number of plaques×5×3^n; where n represents the nth dilution of the virus used to infect the well in which plaques were enumerated.
(a) HCMV. The effect of compounds on the replication of HCMV has been measured using a plaque reduction assay. HFF cells in 24-well cluster dishes were infected with approximately 100 p.f.u. of HCMV per cm^2 cell sheet using the procedures detailed above. Following virus adsorption, compounds dissolved in growth medium were added to duplicate wells in three to six selected concentrations. Following incubation at 37° C. for 7 to 10 days, cell sheets were fixed, stained with crystal violet and microscopic plaques enumerated as described above. Drug effects were calculated as a percentage of reduction in number of plaques in the presence of each drug concentration compared to the number observed in the absence of drug. Ganciclovir (DHPG) was used as a positive control in all experiments.
as §3

[4] = test system: HIV-1; assay: HIV-1 reverse transcriptase assay in infected CEM cells; format: cell-based, strain IIIB of HIV-1; conditions: Example 26; high multiplicity of infection (moi); read-out: HIV-1 IC50, reverse transcriptase assay
Method: (d) HIV-1. Reverse transcriptase (RT) was employed as a marker for HIV-1. This assay measured the presence of HIV in supernatants of CEM cells infected with strain IIIB of HIV-1 by the amount of RT activity. Cells were grown, infected, and incubated in the presence of seven concentrations (one-half log10 dilutions) beginning at 1 or 100 μM of compounds to be assayed. Procedures and the RT assay were performed as detailed previously. Kucera, L. S., et al., AIDS Res. Human Retroviruses 9:307-314 (1993); White, E. L., et al., Antiviral Res. 16:257-266 (1991).

[5] = test system: HSV-1; assay: HSV-1 ELISA in BSC-1 cells; format: cell-based, herpes simplex 1 (HSV-1); conditions: Example 26; for IC50: ELISA
Method: as §4
(b) HSV-1. An enzyme-linked immunosorbent assay (ELISA) was employed to detect HSV-1. 96-well cluster dishes were planted with BSC-1 cells at 10,000 cells per well, in a total volume of 200 μL per well of MEM(E) plus 10% calf serum. After overnight incubation at 37° C., drug and HSV-1 was added at the rate of 100 PFU/well. ELISA plates were blocked with 200 μL per well of 10% calf serum and 0.05% tween in HBS. After incubation for 30 minutes, the blocking agent was rinsed two times with HBS-T. A 1:400 dilution of AP conjugated rabbit anti-HSV-1 antibody in HBS-F was added. Plates were sealed with adhesive sheet, and incubated on rocker for one hour at 37° C. Plates were developed in the dark with 100 μL per well of substrate solution containing p-nitrophenyl phosphate. Plates were read at […]. Drug effects were calculated as a percentage of the reduction in virus in the presence of each drug concentration compared to the titer obtained in the absence of drug. Acyclovir was used as a positive control in all experiments.
as §3

[6] = test system: HFF cells; assay: Cytotoxicity in stationary HFF cells, microscopic inspection; format: cell-based, human
Method: as §1, §2, §3

Nc1nc2c(ncn2C=C2CC2CO)c(=O)[nH]1 (stereo not drawn) [R-1 (B = guanine), Example 22]
IC50 [1]: > 100 µM | IC50 [2]: > 100 µM | IC50 [3]: > 100 µM | IC50 [4]: > 100 µM | IC50 [5]: > 100 µM | IC50 [6]: > 100 µM

Nc1nc(N)c2ncn(C=C3CC3CO)c2n1 (stereo not drawn) [S-1 (B = 2,6-diaminopurine), Example 22]
IC50 [1]: > 100 µM | IC50 [2]: > 100 µM | IC50 [3]: 21 µM | IC50 [4]: > 100 µM | IC50 [5]: > 100 µM | IC50 [6]: 21 µM

Nc1nc(Cl)c2ncn(C=C3CC3CO)c2n1 (stereo not drawn) [S-1 (B = 2-amino-6-chloropurine), Example 22]
IC50 [1]: > 100 µM | IC50 [2]: > 100 µM | IC50 [3]: 1.8 µM | IC50 [4]: > 100 µM | IC50 [5]: 45 µM | IC50 [6]: > 100 µM

Nc1nc(NC2CC2)c2ncn(C=C3CC3CO)c2n1 (stereo not drawn) [S-1 (B = 2-aminopurine-6-cyclo-propylaminopurine), Example 2]
IC50 [1]: > 100 µM | IC50 [2]: > 100 µM | IC50 [3]: 1.8 µM | IC50 [4]: 65 µM | IC50 [5]: 20 µM | IC50 [6]: > 100 µM

Nc1ncnc2c1ncn2/C=C1/C[C@@H]1CO [S-1 (B = adenine), Example 24, (S)-(+)-Synadenol]
IC50 [1]: > 100 µM | IC50 [2]: 80 µM | IC50 [3]: 2.4 µM | IC50 [4]: 1.2 µM | IC50 [5]: 8.8 µM | IC50 [6]: 100 µM

Nc1nc2c(ncn2C=C2CC2CO)c(=O)[nH]1 (stereo not drawn) [S-1 (B = guanine), Example 22]
IC50 [1]: > 100 µM | IC50 [2]: > 100 µM | IC50 [3]: 2.5 µM | IC50 [4]: > 100 µM | IC50 [5]: 45 µM | IC50 [6]: > 100 µM

[N-]=[N+]=Nc1nc(N)nc2c1ncn2C=C1CC1CO (stereo not drawn) [syn-2-Amino-6-azido-N^9-(2-hydroxymethyl-cyclopropylidene-methyl)purine]
IC50 [1]: > 100 µM | IC50 [2]: > 100 µM | IC50 [3]: 41 µM | activity against HCMV (in words) [3]: good activity | IC50 [4]: > 100 µM | IC50 [5]: > 100 µM | IC50 [6]: > 100 µM

COc1nc(N)nc2c1ncn2C=C1CC1CO (stereo not drawn) [syn-2-Amino-6-methoxy-N^9-(2-hydroxymethyl-cyclopropylidenemethyl)purine]
IC50 [3]: 3.1 µM | activity against HCMV (in words) [3]: good activity | IC50 [4]: > 100 µM | activity against HSV-1 (in words) [5]: significant activity | IC50 [5]: 33 µM
